Results published in patent US11447472B2, “Polymorophs of 5-aza-4′-thio-2′-deoxycytidine” (Southern Research Institute, priority 2020, dated 2022).
“And” between values parts separate entries of the source, which are not always exact repeats. Equal entries are not always repeated. Where two headings read alike, the source gives them in different places.

What was measured:
[1] = system: HL-60 cell lines; assay: CellTiter-Glo cell viability, HL-60; format: cell-based; details: HL-60, 3 days, FIG. 24
Procedure: (§1) K562 and HL-60 cell lines were cultured and maintained in RPMI (10% FBS, 1% Penicillin-Streptomycin) medium at 37° C., 95% Air, and 5% CO2. K562 and HL-60 cell lines were each seeded in 96-well plates at a density of 3000 cells/well (90 μl). Form A and SM were treated in each well at a final concentration of 10 μM by treating 10 μl using 3-fold dilution. The cells were incubated for 3 days at 37° C., 95% Air, and 5% CO2. 96-well plates were placed in room temperature for 30 minutes in order to equilibrate. Then, 100 μl of CellTiter-Glo® Luminescent Cell Viability Assay Reagent was added in 96-wells and incubated for 10 minutes in room temperature. Luminescence was measured using Luminometer and IC50 value was analyzed using GraphPrism.

[2] = Dissolution rate (IDR) at pH 1.2, 6.5 and 5.0; format: physicochemical
[3] = system: K562 cell lines; assay: CellTiter-Glo cell viability, K562; format: cell-based; details: K562, 3 days, FIG. 23
Procedure: as §1

[4] = Pharmacokinetics of capsules in male SD rats; details: 2 mg/kg; for AUC(0-inf) / AUC(0-t) / Cmax / MRT inf / half-life / Tmax: po; for AUC(0-inf): AUCInf; for AUC(0-t): AUClast; for MRT inf: MRTInf_obs
[5] = system: blood cancer cells (Mv4-11); assay: IC50 in blood cancer cells (Mv4-11) at different exposure times; format: cell-based; details: Homo sapiens
Procedure: Furthermore, the half maximal inhibitory concentration (IC50) was measured at 1 hr, 2 hr, and 4 hr after the blood cancer cells (Mv4-11) were treated with aza-T-dCyd starting material (SM). […] In addition, the measured IC50 at 4 hr was about 80 nM, which was much higher than the expected value of 20 nM. Therefore, it was confirmed that the efficiency of aza-T-dCyd starting material (SM) greatly decreases as the exposure time of the compound to the cells increases.

[6] = system: tumor; assay: Tumor size (in vivo luciferase activity) in female NOD-SCID mice; details: for tumor size (in vivo luciferase activity): 5 days on, 2 days rest, 9 days rest, repeated, FIG. 17
Procedure: Aza-T-dCyd starting material (SM) was administered to […] female NOD-SCID mice splitting into four groups. Group 1 was a vehicle control group. In group 2, 2.0 mg/kg of aza-T-dCyd starting material (SM) was administered once a day, and in group 3, 1.0 mg/kg of aza-T-dCyd starting material (SM) was administered twice a day. In groups 2 and 3, aza-T-dCyd starting material (SM) in the above amounts was administered for 5 days followed by 2 days as a rest period, and was administered again for another 5 days followed by 9 days as another rest period. This cycle was repeated. In group 4, 1.0 mg/kg of aza-T-dCyd starting material (SM) was administered once a day for five days followed by 2 days as a rest period, and this cycle was repeated.

[7] = 0.25 h, capsule (8:92 w/w with microcrystalline cellulose), male SD rat
[8] = 0.25 h, capsule, mean of two male SD rats
[9] = 0.5 h, capsule, mean of two male SD rats
[10] = capsule, mean of two male SD rats
[11] = male, SD, rat, plasma, Mean, capsule, mean of two male SD rats
[12] = male, SD, rat, plasma, individual rat, capsule, male SD rat

Nc1ncn([C@H]2C[C@H](O)[C@@H](CO)S2)c(=O)n1 [Form A, 5-Aza-4′-thio-2′-deoxycytidine]
IC50 value lower than SM [1]: about 5%
IDR ([2]; FaSSIF, pH 6.5): 2.2 ± 0.06 mg/mL/Cm^2/min
IDR ([2]; FeSSIF, pH 5.0): 4.6 ± 0.07 mg/mL/Cm^2/min
IDR ([2]; SGF, pH 1.2): 7.4 ± 0.21 mg/mL/Cm^2/min
IC50 value lower than SM [3]: about 5%
Concentration (plasma), individual rat [4, 7]: 77.2 ng/mL and 511 ng/mL
Concentration (plasma), Mean [4, 8]: 294 ng/mL
Concentration (plasma), individual rat ([4]; 0.5 h, capsule, male SD rat): 254 ng/mL and 721 ng/mL
Concentration (plasma), Mean [4, 9]: 488 ng/mL
Concentration (plasma), individual rat ([4]; 1 h, capsule, male SD rat): 815 ng/mL and 912 ng/mL
Concentration (plasma), Mean ([4]; 1 h, capsule, mean of two male SD rats): 864 ng/mL
Concentration (plasma), individual rat ([4]; 2 h, capsule, male SD rat): 677 ng/mL and 645 ng/mL
Concentration (plasma), Mean ([4]; 2 h, capsule, mean of two male SD rats): 661 ng/mL
Concentration (plasma), individual rat ([4]; 4 h, capsule, male SD rat): 556 ng/mL and 420 ng/mL
Concentration (plasma), Mean ([4]; 4 h, capsule, mean of two male SD rats): 488 ng/mL
Concentration (plasma), individual rat ([4]; 6 h, capsule, male SD rat): 397 ng/mL and 307 ng/mL
Concentration (plasma), Mean ([4]; 6 h, capsule, mean of two male SD rats): 352 ng/mL
Concentration (plasma), individual rat ([4]; 8 h, capsule, male SD rat): 261 ng/mL and 210 ng/mL
Concentration (plasma), Mean ([4]; 8 h, capsule, mean of two male SD rats): 236 ng/mL
Concentration (plasma), individual rat ([4]; 24 h, capsule, male SD rat): 6.71 ng/mL and 4.29 ng/mL
Concentration (plasma), Mean ([4]; 24 h, capsule, mean of two male SD rats): 5.50 ng/mL
AUCInf, individual rat ([4]; capsule, male SD rat): 6079 ng·h/mL and 5446 ng·h/mL
AUC_%Extrap_obs, individual rat ([4]; capsule, male SD rat): 0.485% and 0.329%
AUClast, individual rat ([4]; capsule, male SD rat): 6050 ng·h/mL and 5428 ng·h/mL
AUClast/D, individual rat ([4]; capsule, male SD rat): 3020 ng·h/mL per mg/kg and 2710 ng·h/mL per mg/kg
Cmax, individual rat ([4]; capsule, male SD rat): 815 ng/mL and 912 ng/mL
MRTInf_obs, individual rat ([4]; capsule, male SD rat): 5.40 h and 4.83 h
T1/2, individual rat ([4]; capsule, male SD rat): 3.05 h and 2.89 h
Tmax, individual rat ([4]; capsule, male SD rat): 1.00 h
AUC values higher than SM ([4]; capsule, male SD rats): about 30%
Cmax value relative to SM ([4]; capsule, male SD rats, higher than SM): about 1.3 times
AUCInf, Mean [4, 10]: 5763 ng·h/mL
AUC_%Extrap_obs, Mean [4, 10]: 0.407%
AUClast, Mean [4, 10]: 5739 ng·h/mL
AUClast/D, Mean [4, 10]: 2870 ng·h/mL per mg/kg
Cmax, Mean [4, 10]: 864 ng/mL
MRTInf_obs, Mean [4, 10]: 5.11 h
T1/2, Mean [4, 10]: 2.97 h
Tmax, Mean [4, 10]: 1.00 h

Nc1ncn([C@H]2C[C@H](O)[C@@H](CO)S2)c(=O)n1 [SM, 5-Aza-4′-thio-2′-deoxycytidine]
IC50 ([5]; Mv4-11, 1 hr after treatment, read-out: measured IC50 at 1 hr): ~160 nM
IC50 ([5]; Mv4-11, 2 hr after treatment, read-out: measured IC50 at 2 hr): ~120 nM
IC50 ([5]; Mv4-11, 4 hr after treatment, read-out: measured IC50 at 4 hr): ~80 nM
IC50 ([5]; Mv4-11, expected from the IC50 measured at 1 hr, read-out: expected IC50 at 2 hr): 80 nM
IC50 ([5]; Mv4-11, expected from the IC50 measured at 1 hr, read-out: expected IC50 at 4 hr): 20 nM
tumor size on day 43 ([6]; Group 2 (2.0 mg/kg, once a day) compared with 'Group 1 (1.0 mg/kg, twice a day)', FIG. 18): significantly smaller
tumor size (in vivo luciferase activity) ([6]; Group 2: 2.0 mg/kg once a day): most greatly suppressed
tumor size (in vivo luciferase activity) ([6]; Group 3: 1.0 mg/kg twice a day): sharply increased after 40 days
Concentration (plasma), individual rat [4, 7]: 29.1 ng/mL and 64.9 ng/mL
Concentration (plasma), Mean [4, 8]: 47.0 ng/mL
Concentration (plasma), individual rat ([4]; 0.5 h, capsule, male SD rat): 123 ng/mL and 243 ng/mL
Concentration (plasma), Mean [4, 9]: 183 ng/mL
Concentration (plasma), individual rat ([4]; 1 h, capsule, male SD rat): 321 ng/mL and 610 ng/mL
Concentration (plasma), individual rat ([4]; 2 h, capsule, male SD rat): 613 ng/mL
Concentration (plasma), individual rat ([4]; 4 h, capsule, male SD rat): 442 ng/mL
Concentration (plasma), individual rat ([4]; 6 h, capsule, male SD rat): 283 ng/mL
Concentration (plasma), individual rat ([4]; 8 h, capsule, male SD rat): 199 ng/mL
Concentration (plasma), individual rat ([4]; 24 h, capsule, male SD rat): 2.65 ng/mL and 4.48 ng/mL
AUCInf, individual rat ([4]; capsule, male SD rat): 4780 ng·h/mL
AUC_%Extrap_obs, individual rat ([4]; capsule, male SD rat): 0.255% and 0.402%
AUClast, individual rat ([4]; capsule, male SD rat): 4761 ng·h/mL
AUClast/D, individual rat ([4]; capsule, male SD rat): 2030 ng·h/mL per mg/kg and 2380 ng·h/mL per mg/kg
Cmax, individual rat ([4]; capsule, male SD rat): 613 ng/mL
MRTInf_obs, individual rat ([4]; capsule, male SD rat): 5.23 h
T1/2, individual rat ([4]; capsule, male SD rat): 2.98 h
AUC_%Extrap_obs, Mean [4, 10]: 0.329%
AUClast/D, Mean [4, 10]: 2210 ng·h/mL per mg/kg
concentration at 1 h ([4]; male, SD, rat, plasma, oral, Concentration (plasma), Mean, 1 h, capsule, mean of two male SD rats): 466 ng/mL
concentration at 2 h ([4]; male, SD, rat, plasma, oral, Concentration (plasma), Mean, 2 h, capsule, mean of two male SD rats): 657 ng/mL
concentration at 4 h ([4]; male, SD, rat, plasma, oral, Concentration (plasma), Mean, 4 h, capsule, mean of two male SD rats): 415 ng/mL
concentration at 6 h ([4]; male, SD, rat, plasma, oral, Concentration (plasma), Mean, 6 h, capsule, mean of two male SD rats): 272 ng/mL
concentration at 8 h ([4]; male, SD, rat, plasma, oral, Concentration (plasma), Mean, 8 h, capsule, mean of two male SD rats): 178 ng/mL
concentration at 24 h ([4]; male, SD, rat, plasma, oral, Concentration (plasma), Mean, 24 h, capsule, mean of two male SD rats): 3.57 ng/mL
concentration at 2 h ([4]; male, SD, rat, plasma, oral, Concentration (plasma), individual rat, 2 h, capsule, male SD rat): 700 ng/mL
concentration at 4 h ([4]; male, SD, rat, plasma, oral, Concentration (plasma), individual rat, 4 h, capsule, male SD rat): 387 ng/mL
concentration at 6 h ([4]; male, SD, rat, plasma, oral, Concentration (plasma), individual rat, 6 h, capsule, male SD rat): 261 ng/mL
concentration at 8 h ([4]; male, SD, rat, plasma, oral, Concentration (plasma), individual rat, 8 h, capsule, male SD rat): 156 ng/mL
AUC(0-inf) [4, 11]: 4430 ng·h/mL
AUC(0-inf) [4, 12]: 4080 ng·h/mL
AUC(0-t) [4, 11]: 4410 ng·h/mL
AUC(0-t) [4, 12]: 4060 ng·h/mL
Cmax [4, 11]: 657 ng/mL
Cmax [4, 12]: 700 ng/mL
MRT inf [4, 11]: 5.15 h
MRT inf [4, 12]: 5.06 h
half-life ([4]; male, SD, rat, plasma, T1/2, Mean, capsule, mean of two male SD rats): 2.85 h
half-life ([4]; male, SD, rat, plasma, T1/2, individual rat, capsule, male SD rat): 2.72 h
Tmax [4, 11]: 2 h
Tmax [4, 12]: 2 h
